Test results as given in patent US4757079A, “Anti-hypertensive piperidine compounds” (Dynamac Corporaton, priority 1986, dated 1988).
Where a name gives a salt, the structure may show the parent alone.

Assays:
nictitating membrane = assay: responsiveness of the nictitating membrane to pre- or post-ganglionic stimulation in the cat; assay type: in vivo; conditions: 1 to 10 mg/kg i.v.
guinea pig ileum = assay: anticholinergic activity on the guinea pig ileum
cat [1] = assay: heart rate and mean blood pressure in cats pretreated with hexamethonium and atropine; assay type: in vivo; conditions: compared with absence of the blocking agents
[2] = tested on: rat hemidiaphragm preparation; assay: rat hemidiaphragm preparation, perfusate volume (vasodilatory effect)
[3] = tested on: peripheral muscarinic receptors; assay: response to vagal stimulation or to exogenous acetylcholine in the cat; assay type: in vivo; conditions: 1 to 10 mg/kg i.v.
cat [4] = assay: blood pressure and heart rate in the cat (i.v.); assay type: in vivo
neuromuscular function = assay: neuromuscular twitch response in the cat; assay type: in vivo

CN1CCC(/C=C/c2cccc3ccccc23)CC1 [B-120, 1-methyl-4-(1-naphthylvinyl)piperidine hydrochloride]
responsiveness of the nictitating membrane to pre- or post-ganglionic stimulation (nictitating membrane): did not diminish the responsiveness
anticholinergic activity (guinea pig ileum): essentially devoid of anticholinergic activity
anticholinergic potency on a relative scale vs atropine sulfate (guinea pig ileum; relative to atropine sulfate): 5.5×10^-4
reduction in heart rate (cat [1]): comparable to that induced in the absence of the blocking agents
reduction in mean blood pressure (cat [1]): comparable to that induced in the absence of the blocking agents
increase in perfusate volume ([2]; 17.5 mg/L): not significant
perfusate volume after removal of the B-120 ([2]; after 35 mg/L): returned to normal
response to exogenous acetylcholine [3]: did not alter the response
response to vagal stimulation [3]: did not alter the response
Heart Rate (cat [4]; 5.0 mg/kg i.v., cat): 90 % Control
Mean Blood Pressure (cat [4]; 5.0 mg/kg i.v., cat): 60 % Control
Pulse Pressure (cat [4]; 5.0 mg/kg i.v., cat): 110 % Control
Heart Rate (cat [4]; 10.0 mg/kg i.v., cat): 80 % Control
Mean Blood Pressure (cat [4]; 10.0 mg/kg i.v., cat): 30 % Control
Pulse Pressure (cat [4]; 10.0 mg/kg i.v., cat): 70 % Control
heart rate rhythm (cat [4]; 50 mg/kg i.v., cat): did not show evidence of abnormal rhythm
Heart Rate (cat [4]; 50.0 mg/kg i.v., cat): 0 % Control
Mean Blood Pressure (cat [4]; 50.0 mg/kg i.v., cat): 0 % Control
Pulse Pressure (cat [4]; 50.0 mg/kg i.v., cat): 0 % Control
Heart Rate (cat [4]; 0.5 to 50 mg/kg i.v., cat): dose-related decrease
Mean Blood Pressure (cat [4]; 0.5 to 50 mg/kg i.v., cat): dose-related decrease
diastolic versus systolic blood pressure (cat [4]; 0.5 to 50 mg/kg i.v., cat): greater decrease in diastolic than systolic blood pressure
death (cat [4]; in vivo): death appeared to be caused by hypotensive crisis
neuromuscular twitch response (neuromuscular function): no significant decrease
